# Measurements from patent publication US7943606B2, “Compositions and methods to control abnormal cell growth” (CanCure Laboratories, LLC, priority 2005, dated 2011).
# Legend:
# Format in all cases: cell-based, human
# [1] = Viability of HTB-157 fetal (normal) fibroblasts; settings: human, MTT
# Experimental: (§1) To quantify cell death, around the time when significant and characteristic morphological changes took place, cells were pulse-labeled for 10 minutes with [^3H]thymidine to measure DNA activity as described elsewhere [Tomono, M. and Kiss, Z. (1995), “Ethanol enhances the stimulatory effects of insulin and insulin-like growth factor-I on DNA synthesis in NIH 3T3 fibroblasts,” Biochem. Biophys. Res. Commun. 208, 63-67]. Also, cells were collected as suspensions using trypsin, an established method in cell biology, followed by re-plating of cells in fresh tissue culture medium. If no viable cells were obtained after one week in culture, it meant that the cells at the time of re-plating were dead. Survival values obtained with untreated cells were considered 100%. For the determination of relative number of viable cells after treatments, in most cases the MTT assay was used. This calorimetric assay is based on the ability of living cells, but not dead cells, to reduce 3-(4,5-dimethyl thiazol-2-yl)-2,5-diphenyltetrazolium bromide [Carmichael, J, De Graff, W. G., Gazdar, A. F., Minna, J. D. and Mitchell, J. B. (1987), “Evaluation of tetrazolium-based semi-automated calorimetric assay: Assessment of chemosensitivity testing,” Cancer Res. 47, 936-942]. For this assay, cells were plated in 96-well plates, and the MTT assay was performed both in untreated and treated cell cultures. The MTT assay also was performed at the start of treatments to allow assessment of proliferation rates in the control and treated cell cultures.
# (§2) NIH3T3, T47D, A-431, HT-29, and MEL-28 cells were cultured as indicated earlier. CaOV-3 human ovarian cancer cells were cultured in DMEM containing 10% FBS. ZR-75-1 human estrogen receptor-positive breast cancer cells were maintained in RPMI 1640 medium supplemented with 10% FBS. HTB-157 human fetal fibroblasts, MEL-24 human malignant melanoma cells, Hep G2 human hepatoblastoma cells, and CaCO-2 human colon adenocarcinoma cells were maintained in Eagles's MEM containing 10% FBS. MB-231 human estrogen receptor-negative breast cancer cells were maintained in Leibovitz's L-15 medium supplemented with 10% FBS. Cells were seeded into 96-well plates and treated at ˜70-90% confluency. Two hours prior to treatments the medium was changed for fresh 10% serum medium, and then the cells were incubated for 10 days in the absence (□) or presence of 50 μM CCDTHT ? or 100 μM CCDTHT (▪). The medium was changed and the cells were re-treated on days 3 and 6. The MTT assay was used to determine cell viability on day 10. The data, shown in FIG. 6, are the mean±std. dev. of 8 incubations in one experiment. (The experiment was repeated twice with similar results).
# (§3) HTB-157, MEL-28, CaOV-3, T47D, and A-431 cells were maintained as indicated earlier. The 3A-SubE post crisis placenta cells (capable of unlimited proliferation) were maintained in Eagle's MEM containing 10% FBS. Cells were seeded into 96-well plates and treated at ˜70-90% confluency. Two hours before treatments the medium was changed for fresh 10% serum medium, and then cells were incubated for 48 hours in the absence (□) or presence of 50 μM CCDTHT ? or 100 μM CCDTHT (▪). Half of the cultures was analyzed by the MTT assay at this point, and the other half of the cultures was incubated for an additional 96 hours in fresh 10% serum-containing medium without CCDTHT followed by the MTT assay. The data, shown in FIG. 8, are the mean±std. dev. of 8 incubations in one experiment. (Similar results were obtained in another experiment).
# (§4) HaCaT keratinocytes, frequently used immortalized model cells for studying psoriatic keratinocytes, and HTB-157 human fetus lung fibroblasts were cultured in 10% FBS-containing Dulbecco's modified Eagle's medium (DMEM). […]
# HTB-157 cells = test: Viability of HTB-157 fetal (normal) fibroblasts
# Experimental: as §1, §2, §3, §4
# choline transport = test: [14C]choline uptake and metabolism in AN3CA, MCF-7 and MEL-28 cancer cells; settings: 100 μM CCDTHT or 0.5 mM HC-3, 2 hours, each cell line
# Experimental: MEL-28 and MCF-7 cells were cultured in MEM medium supplemented with 10% fetal bovine serum (FBS) and in DMEM medium supplemented with 10% FBS, respectively. The AN3CA human endometrial adenocarcinoma cells were maintained in Eagle's MEM containing 10% FBS. Cancer cells were grown up to confluency in 12-well plates in 10% fetal-bovine serum-containing medium, then incubated in the presence of 1 μCi of [methyl-^14C]choline (bought from Amersham; Piscataway, N.J.) for 2 hours. Cells were first rapidly (within 30 seconds) washed three times with 4 ml of serum-free medium, then extracted with ice-cold methanol. This was followed by the determination of cellular free radiolabeled choline and phosphocholine (PCho) by column chromatography as described earlier [Kiss, Z. and Crilly, K. S. (1995), “Tamoxifen inhibits uptake and metabolism of ethanolamine and choline in multidrug-resistant, but not in drug-sensitive, MCF-7 human breast carcinoma cells,” FEBS Lett. 360, 165-168], and the separation and determination of radiolabeled phosphatidylcholine (PtdCho) by thin layer chromatography as indicated in Kiss [Kiss, Z. (1996), “Direct proof that phorbol ester accelerates the use of choline phosphate for phosphatidylcholine synthesis in intact cells,” Arch. Biochem. Biophys. 335, 191-196].
# MCF-7 and MEL-28 cells were cultured as described earlier. The AN3CA human endometrial adenocarcinoma cells were maintained in Eagle's MEM containing 10% FBS. Each cell type was grown in 12-well plates to confluency and then incubated with 1 μCi of [methyl-^14C]choline for 2 hours in the absence (□) or presence of 100 μM CCDTHT ? or 0.5 mM HC-3 (▪), followed by the determination of cellular contents of radiolabeled choline (A), PCho (B) and PtdCho (C), as indicated in FIG. 9. […] Thus, if both CCDTHT and HC-3 influenced cell viability solely via inhibition of choline metabolism, then these agents should similarly affect cell viability, at least at the concentrations used in the choline transport experiment.
smiles,measurement,setting,value
"CC[N+](C)(CC)CCOCc1ccc2sc3ccccc3c(=O)c2c1.[I-] [CCDTHT, N,N-diethyl-N-methyl-2-[(9-oxo-9H-thioxanthen-2-yl)methoxy]-ethanaminium iodide]","cytotoxicity at 10 days, 100 μM","[1]; HTB-157 fetal (normal) fibroblasts, 100 μM, 10 days, read-out: reduction in the number of viable cells, HTB-157",≤ 50%
same,cytotoxicity at 48 h,"[1]; HTB-157 fetal lung (normal) fibroblasts, 50-100 μM, 48 hours, read-out: decrease in viability of HTB-157 fibroblasts",20 to 22%
same,"reversibility: proliferation in fresh medium after treatment, HTB-157","HTB-157 cells; 100 μM 48 hours, then 96 hours without CCDTHT",clearly resumed proliferation
same,"decrease in DNA synthesis, HTB-157 fibroblasts","HTB-157 cells; 100 μM, 48 hours",about 16%
same,numbers of re-plated untreated and treated HTB-157 fibroblasts,"HTB-157 cells; 100 μM, re-plated after treatment",practically no difference
same,decrease in viability of HTB-157 fibroblasts,"HTB-157 cells; 50-100 μM, 48 hours, MTT",19-20%
same,"sensitivity compared with HaCaT cells, HTB-157 fibroblasts","HTB-157 cells; 50 and 100 μM, 72 hours, MTT",significantly less sensitive
same,"inhibitory effects on choline uptake and metabolism (choline, PCho, PtdCho)",choline transport,comparably strong inhibitory effects
